# Patent publication US8163929B2, “Dihydropyridone amides as P2X7 modulators” (Roche Palo Alto LLC, priority 2008, dated 2012)
# Biological target: T1, P2X7 (UniProt Q99572)
# T1 sequence (Q99572 1-595): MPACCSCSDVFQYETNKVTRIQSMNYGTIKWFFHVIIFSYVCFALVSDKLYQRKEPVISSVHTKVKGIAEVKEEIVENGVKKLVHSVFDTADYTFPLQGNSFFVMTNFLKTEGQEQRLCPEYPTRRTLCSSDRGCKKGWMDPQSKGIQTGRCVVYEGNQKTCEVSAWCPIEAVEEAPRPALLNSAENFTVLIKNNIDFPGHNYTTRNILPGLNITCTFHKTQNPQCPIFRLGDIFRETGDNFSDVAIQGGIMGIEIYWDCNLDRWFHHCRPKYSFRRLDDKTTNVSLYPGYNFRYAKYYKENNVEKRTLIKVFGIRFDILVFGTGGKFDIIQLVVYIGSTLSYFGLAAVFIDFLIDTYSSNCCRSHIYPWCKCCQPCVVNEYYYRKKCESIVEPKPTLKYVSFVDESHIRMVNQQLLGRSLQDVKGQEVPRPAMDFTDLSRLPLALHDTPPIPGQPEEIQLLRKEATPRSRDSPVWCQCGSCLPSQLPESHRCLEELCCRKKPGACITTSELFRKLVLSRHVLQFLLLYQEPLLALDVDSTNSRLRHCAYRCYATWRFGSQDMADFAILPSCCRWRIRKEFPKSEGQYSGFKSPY
# Assay: P2X7 activity of Table 1
# Assay type: cell-based
# Settings: pIC50 values for P2X7
# Protocol: Stock solutions of compounds were prepared from powders as a 10 mM DMSO stock solution. These solutions were stored at RT during the two week period of these experiments to prevent freeze-thaw of the DMSO stocks. The DMSO stocks were added to the appropriate assay buffer at a concentration of 10 μM, and then diluted serially to the final concentrations that were tested. […] The aqueous solutions of compounds as well as ATP (Sigma A7699) and BzATP (Sigma B6396) were prepared fresh for each day of experiment.
# 1321N1 cells stably expressing the full length human P2X7 gene (1321N1-hP2X7) and HEK293 cells stably expressing the full length rat P2X7 gene (HEK293-rP2X7) were obtained from the Roche Cell Culture Facility. 1321N1-hP2X7 cells were grown in Dulbecco's Modified Eagle's Medium (DMEM) high glucose supplemented with 10% FBS and 250 μg/mL G418. HEK293-rP2X7 cells were grown in DMEM/F-12 supplemented with 10% FBS, 1 mM CaCl2, 2 mM MgCl2, 2 mM L-Glutamine and 500 μg/ml G418. Cells were split such that they never became >70% confluent.
# On the day prior to the experiment, 1321N1-hP2X7 or HEK293-rP2X7 cells were released into suspension with calcium-free PBS+Versene and washed by centrifugation with calcium-free PBS to remove the Versene. Cells were resuspended in growth medium at a density of 2.5×10^5 cells/mL and seeded into black walled, clear bottom 96 well plates (50,000 cells/well) approximately 18 hr prior to intracellular calcium flux experiments.
# On the day of the experiment, plates were washed with FLIPR buffer (calcium- and magnesium-free Hank's Balanced Salt Solution (HBSS) supplemented with 10 mM Hepes, 2.5 mM probenecid and 2 mM calcium chloride) using a BIO-TEK 96 channel plate washer and incubated with […] fluo-3 dye at 37° C. for one hr. The dye was then removed by plate washing and the cells were allowed to equilibrate for 20 min at room temperature with antagonist or vehicle (FLIPR buffer). Agonist (100 μM BzATP final concentration for hP2X7; 5 μM BzATP final concentration or rP2X7) was added online with the FLIPR and fluorescence measurements made at 1 sec intervals for 60 sec followed by 3 sec intervals for a further 4 min (5 min total). A final addition of 5 μM ionomycin was made and the maximal BzATP-evoked fluorescence normalized to the maximal ionomycin-evoked fluorescence.
row,pIC50,Structure (SMILES)
1,6.58,"Cc1cncc(-c2ccc(C)c(NC(=O)C3=CNC(=O)C[C@H]3c3ccc(F)cc3)c2)n1 [Compound 79, (S)-4-(4-Fluoro-phenyl)-6-oxo-1,4,5,6-tetrahydro-pyridine-3-carboxylic acid [2-methyl-5-(6-methyl-pyrazin-2-yl)-phenyl]-amide]"
2,7.41,"Cc1cc(F)c(-c2cc(C)n(CCO)n2)cc1NC(=O)C1=CN(C)C(=O)C[C@H]1c1ccc(F)cc1 [Compound 148, (S)-4-(4-Fluoro-phenyl)-1-methyl-6-oxo-1,4,5,6-tetrahydro-pyridine-3-carboxylic acid {4-fluoro-5-[1-(2-hydroxy-ethyl)-5-methyl-1H-pyrazol-3-yl]-2-methyl-phenyl}-amide]"
3,7.645,"Cc1ccc(-c2ccn(CCO)n2)cc1NC(=O)C1=CN(C)C(=O)C[C@H]1c1cccc(F)c1 [Compound 112, (S)-4-(3-Fluoro-phenyl)-1-methyl-6-oxo-1,4,5,6-tetrahydro-pyridine-3-carboxylic acid {5-[1-(2-hydroxy-ethyl)-1H-pyrazol-3-yl]-2-methyl-phenyl}-amide]"
4,6.935,"Cc1ccc(-c2cc(C3CC3)[nH]n2)cc1NC(=O)C1=CNC(=O)C[C@H]1c1ccc(F)cc1 [Compound 62, (S)-4-(4-Fluoro-phenyl)-6-oxo-1,4,5,6-tetrahydro-pyridine-3-carboxylic acid [5-(5-cyclopropyl-1H-pyrazol-3-yl)-2-methyl-phenyl]-amide]"
5,7.24,"Cc1ccc(-n2ccc(=O)n(C)c2=O)cc1NC(=O)C1=CNC(=O)C[C@H]1c1ccc(F)cc1 [Compound 133, (S)-4-(4-Fluoro-phenyl)-6-oxo-1,4,5,6-tetrahydro-pyridine-3-carboxylic acid [2-methyl-5-(3-methyl-2,4-dioxo-3,4-dihydro-2H-pyrimidin-1-yl)-phenyl]-amide]"
6,7.864,"Cc1cc(F)c(-c2ccnn(C)c2=O)cc1NC(=O)C1=CN(C)C(=O)C[C@H]1c1ccc(F)cc1 [Compound 130, (S)-4-(4-Fluoro-phenyl)-1-methyl-6-oxo-1,4,5,6-tetrahydro-pyridine-3-carboxylic acid [4-fluoro-2-methyl-5-(2-methyl-3-oxo-2,3-dihydro-pyridazin-4-yl)-phenyl]-amide]"
7,6.895,"Cc1ccc(-c2cc(C(F)(F)F)n(CCO)n2)cc1NC(=O)C1=CN(C)C(=O)C[C@H]1c1cccc(F)c1 [Compound 111, (S)-4-(3-Fluoro-phenyl)-1-methyl-6-oxo-1,4,5,6-tetrahydro-pyridine-3-carboxylic acid {5-[1-(2-hydroxy-ethyl)-5-trifluoromethyl-1H-pyrazol-3-yl]-2-methyl-phenyl}-amide]"
8,7.46,"Cc1ccc(-c2cc(C)n(CCO)n2)cc1NC(=O)C1=CN(C)C(=O)C[C@H]1c1ccc(F)cc1 [Compound 38, (S)-4-(4-Fluoro-phenyl)-1-methyl-6-oxo-1,4,5,6-tetrahydro-pyridine-3-carboxylic acid {5-[1-(2-hydroxy-ethyl)-5-methyl-1H-pyrazol-3-yl]-2-methyl-phenyl}-amide]"
9,7.315,"Cc1ccnc(-c2ccc(C)c(NC(=O)C3=CNC(=O)C[C@H]3c3ccc(F)cc3)c2)n1 [Compound 80, (S)-4-(4-Fluoro-phenyl)-6-oxo-1,4,5,6-tetrahydro-pyridine-3-carboxylic acid [2-methyl-5-(4-methyl-pyrimidin-2-yl)-phenyl]-amide]"
10,8.2,"Cn1nccc(-c2ccc(F)c(NC(=O)C3=CNC(=O)C[C@H]3c3ccc(F)cc3)c2)c1=O [Compound 142, (S)-4-(4-Fluoro-phenyl)-6-oxo-1,4,5,6-tetrahydro-pyridine-3-carboxylic acid [2-fluoro-5-(2-methyl-3-oxo-2,3-dihydro-pyridazin-4-yl)-phenyl]-amide]"
11,6.913,"Cc1cc(-c2ccc(C)c(NC(=O)C3=CNC(=O)C[C@H]3c3ccc(F)cc3)c2)n(CCO)n1 [Compound 12, (S)-4-(4-Fluoro-phenyl)-6-oxo-1,4,5,6-tetrahydro-pyridine-3-carboyxlic acid {5-[2-(2-hydroxy-ethyl)-5-methyl-2H-pyrazol-3-yl]-2-methyl-phenyl}-amide]"
12,6.52,"Cc1ccc(-c2ccc(=O)n(C)n2)cc1NC(=O)C1=CNC(=O)C[C@H]1c1ccc(F)cc1 [Compound 98, (S)-4-(4-Fluoro-phenyl)-6-oxo-1,4,5,6-tetrahydro-pyridine-3-carboxylic acid [2-methyl-5-(1-methyl-6-oxo-1,6-dihydro-pyridazin-3-yl)-phenyl]-amide]"
13,8.395,"Cc1ccc(-c2ccnn(C)c2=O)cc1NC(=O)C1=CNC(=O)C[C@H]1c1ccc(F)cc1 [Compound 71, (S)-4-(4-Fluoro-phenyl)-6-oxo-1,4,5,6-tetrahydro-pyridine-3-carboxylic acid [2-methyl-5-(2-methyl-3-oxo-2,3-dihydro-pyridazin-4-yl)-phenyl]-amide]"
14,5.77,"Cc1ccc(-c2cc(C(F)(F)F)[nH]n2)cc1NC(=O)C1=CNC(=O)C[C@H]1c1ccc(F)cc1 [Compound 102, (S)-4-(4-Fluoro-phenyl)-6-oxo-1,4,5,6-tetrahydro-pyridine-3-carboxylic acid [2-methyl-5-(5-trifluoromethyl-1H-pyrazol-3-yl)-phenyl]-amide]"
15,7.255,"Cc1ccc(-c2cc(C)n(C[C@H](O)CO)n2)cc1NC(=O)C1=CN(C)C(=O)C[C@H]1c1ccc(F)cc1 [Compound 61, (S)-4-(4-Fluoro-phenyl)-1-methyl-6-oxo-1,4,5,6-tetrahydro-pyridine-3-carboxylic acid {5-[1-((S)-2,3-dihydroxy-propyl)-5-methyl-1H-pyrazol-3-yl]-2-methyl-phenyl}-amide]"
16,7.15,"COC[C@@H](O)Cn1nc(-c2ccc(C)c(NC(=O)C3=CNC(=O)C[C@H]3c3ccc(F)cc3)c2)cc1C [Compound 91, (S)-4-(4-Fluoro-phenyl)-6-oxo-1,4,5,6-tetrahydro-pyridine-3-carboxylic acid {5-[1-((S)-2-hydroxy-3-methoxy-propyl)-5-methyl-1H-pyrazol-3-yl]-2-methyl-phenyl}-amide]"
17,7.48,"Cc1ccc(-c2ccc(C)c(NC(=O)C3=CNC(=O)C[C@H]3c3cccc(F)c3)c2)nn1 [Compound 96, (S)-4-(3-Fluoro-phenyl)-6-oxo-1,4,5,6-tetrahydro-pyridine-3-carboxylic acid [2-methyl-5-(6-methyl-pyridazin-3-yl)-phenyl]-amide]"
18,7.705,"Cc1ccc(-c2ccn(C)n2)cc1NC(=O)C1=CNC(=O)C[C@H]1c1ccc(F)cc1 [Compound 65, (S)-4-(4-Fluoro-phenyl)-6-oxo-1,4,5,6-tetrahydro-pyridine-3-carboxylic acid [2-methyl-5-(1-methyl-1H-pyrazol-3-yl)-phenyl]-amide]"
19,7.145,"Cc1ccc(-n2ncc(=O)[nH]c2=O)cc1NC(=O)C1=CN(C)C(=O)C[C@H]1c1cccc(F)c1 [Compound 108, (S)-4-(3-Fluoro-phenyl)-1-methyl-6-oxo-1,4,5,6-tetrahydro-pyridine-3-carboxylic acid [5-(3,5-dioxo-4,5-dihydro-3H-[1,2,4]triazin-2-yl)-2-methyl-phenyl]-amide]"
20,5.74,"CN1C=C(C(=O)Nc2cc(-n3ncccc3=O)ccc2F)[C@H](c2ccc(F)cc2)CC1=O [Compound 146, (S)-4-(4-Fluoro-phenyl)-1-methyl-6-oxo-1,4,5,6-tetrahydro-pyridine-3-carboxylic acid [2-fluoro-5-(6-oxo-6H-pyridazin-1-yl)-phenyl]-amide]"
21,6.015,"Cc1ccc(-n2ccc(=O)n(C)c2=O)cc1NC(=O)C1=CN(C)C(=O)C[C@H]1c1ccc(F)cc1 [Compound 132, (S)-4-(4-Fluoro-phenyl)-1-methyl-6-oxo-1,4,5,6-tetrahydro-pyridine-3-carboxylic acid [2-methyl-5-(3-methyl-2,4-dioxo-3,4-dihydro-2H-pyrimidin-1-yl)-phenyl]-amide]"
